From patent publication US5216165A, “N-substituted aminoquinolines as analgesic agents” (American Home Products Corporation, priority 1992, dated 1993)
Structures can show the parent of a compound that is named as a salt. Where two headings read alike, the source gives them in different places.

Columns and labels:
BK2 receptor = molecular target: T1, BK2 receptor (Cavia porcellus, UniProt O70526); experiment: competition with tritiated bradykinin (3H-BK) for BK2 receptor sites in guinea pig ileum; format: binding; conditions: for Activity (reference compounds, 3H-BK binding): screened at 100 μM
T1 construct: The distal portion of the ileum is removed and placed in ice cold homogenization buffer; from tissue; host or cells: distal ileum of adult male Hartley strain guinea pig, washed 50,000×g pellet of homogenate
T1 sequence (O70526 1-372): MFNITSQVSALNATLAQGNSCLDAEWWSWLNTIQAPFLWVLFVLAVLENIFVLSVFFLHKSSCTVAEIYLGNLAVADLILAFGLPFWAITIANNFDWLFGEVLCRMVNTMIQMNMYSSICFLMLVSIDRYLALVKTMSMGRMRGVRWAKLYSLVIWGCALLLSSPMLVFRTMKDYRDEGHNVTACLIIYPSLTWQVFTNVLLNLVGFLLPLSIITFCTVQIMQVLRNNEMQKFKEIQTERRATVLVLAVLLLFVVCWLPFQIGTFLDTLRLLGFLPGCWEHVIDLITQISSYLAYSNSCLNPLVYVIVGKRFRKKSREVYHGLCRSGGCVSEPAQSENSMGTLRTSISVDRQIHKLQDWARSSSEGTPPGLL
Procedure: This assay is employed to identify compounds which compete specifically with tritiated bradykinin (^3 H-BK) for BK2 receptor sites in guinea pig ileum.
The assay is carried out as follows:
A 350-500 g adult male Hartley strain guinea pig is euthanized by stunning followed by decapitation. The distal portion of the ileum is removed and placed in ice cold homogenization buffer [25 mM N-tris(hydroxymethyl)methyl-2-aminoethane sulfonic acid (TES) 1 mM 1,10-phenanthroline, adjusted to pH 6.8 with NH4 OH]. The contents of the ileal lumen are rinsed out with cold homogenization buffer. The tissue is cut into small pieces and homogenized in 20 volumes of homogenization buffer using a Brinkmann Polytron homogenizer equipped with a PTA 10 TS generator. The tissue is homogenized for 10 seconds, three times, at setting 5.
The homogenate is filtered through a surgical gauze sponge and centrifuged at 50,000×g for 20 minutes at 4° C. The supernatant fluid is discarded and the homogenization and centrifugation procedure is repeated. After discarding the supernatant fluid, the final pellet is resuspended in 40 volumes of assay buffer [25 mM TES, pH=6.8, 1 mM 1,10-phenanthroline, 1 mM dithiothreitol, 2 μM captopril, 140 μg/ml bacitracin and 0.1% bovine serum albumin (BSA)]. The homogenate is filtered once more through a surgical gauze sponge and kept on ice until use.
The assay is performed using only polypropylene pipet tips and polypropylene test tubes. Each tube receives 100 μl of 800 pM ^3 H-BK, 100 μl of the test compound solution or vehicle (TES assay buffer), and 100 μl of 25 mg/ml tissue homogenate in a total volume of 1 ml. The final concentration of ^3 H-BK is 80 pM. The final tissue concentration is 2.5 mg/ml. Compounds are screened at 100 μM. Nonspecific binding is determined in the presence of 1 μM unlabeled bradykinin. All determinations are made in triplicate. Three 100 μl aliquots of the 800 pM 3 H-BK working solution are added directly to scintillation vials to determine the total added radioactivity.
The tubes are incubated for 90 minutes at 25° C. while being gently agitated on an orbital shaker. Bound ligand is separated from free ligand, using Whatman GF/B glass fiber filters (pretreated with 0.1% aqueous polyethyleneimine made neutral with HCl). A Brandel receptor binding harvester is used. Assay tubes and glass fiber filters are rinsed three times with 3 ml of cold physiological saline.
The filter discs are transferred to 20 ml scintillation vials. Ten ml of aqueous sample LSC cocktail (Aquassure, New England Nuclear) is added to each vial. After capping, the vials are agitated for 5 minutes on an orbital shaker. The samples are counted for ten minutes in a refrigerated liquid scintillation counter.
The following values are obtained:
Bx Total binding in the presence of the test compound
C Control specific binding. C=Bt -Bns
D Specific binding in the presence of the test compound. D=Bx -Bns
Percent of control: D/C×100
Percent Inhibition: (1-D/C)×100
After calculation of Percent of Control for each dilution, the values are analyzed and the IC50 with its 95% confidence limits is determined on a Hewlett Packard 9816 computer using the program "PS-NONLIN" (generalizednon-linear regression with inverse prediction and graphics).

[1] = test system: bradykinin-induced writhing response; experiment: inhibition of the writhing response induced in mice by exogenous administration of bradykinin; format: in vivo, mice (male CD-1)
[2] = guinea pig ileum homogenate, 80 pM 3H-BK, 90 min, 25° C., pH 6.8, read-out: IC50
[3] = 30 mg/kg i.p., bradykinin 0.5 mg/kg i.p. after PGE2
[4] = bradykinin 0.5 mg/kg i.p. after PGE2
[5] = guinea pig ileum homogenate, 80 pM 3H-BK

Row | Compound | IC50 (BK2 receptor; [2]) | % Inhibition at 30 mg/kg i.p. [1, 3] | further results
1 | O=C(c1ccccc1)N1CCC(NCc2ccc(Nc3ccnc4cc(Cl)ccc34)cc2)CC1 [Example 15, 1-Benzoyl-N-[[[4-[(7-chloro-4-quinolinyl)amino]phenyl]methyl]-4-piperidinanaminetrifluoroacetate (1:2), 1.03 hydrate] | 13.8 µM | 43% | 
2 | CCN(CC)C(=O)c1ccc(CN2CCC(NCc3ccc(Nc4ccnc5cc(Cl)ccc45)cc3)CC2)cc1.Cl [Example 9, 4-[[4-[[[4-[(7-Chloro-4-quinolinyl)amino]phenyl]methyl]amino]-1-piperidinyl]methyl]-N,N-diethylbenzamide, hydrochloride] | 0.77 µM | 0.0% | 
3 | Thi^5,8 --DPhe^7 --BK [reference compound] |  |  | IC50 (BK2 receptor; guinea pig ileum homogenate, 80 pM 3H-BK, 90 min, 25° C., pH 6.8, read-out: IC50 (reference compounds)): 0.069 µM
4 | CCCC(=O)N(Cc1ccc(Nc2ccnc3cc(Cl)ccc23)cc1)C1CCN(CCCCCC(=O)N(CC)CC)CC1 [Example 14, 4-[[[4-[(7-Chloro-4-quinolinyl)amino]phenyl]methyl](1-oxobutyl)amino]-N,N-diethyl-1-piperidinehexanamide, 0.56 hydrate] | 5.5 µM | 81% | % Inhibition at 200 mg/kg p.o. [1, 4]: 46%
5 | DesArg^9 --Leu^8 BK: BK1 Antagonist [reference compound] |  |  | Activity (reference compounds, 3H-BK binding) (BK2 receptor; [5]): No Activity
6 | CCCCN1CCC(NCc2ccc(Nc3ccnc4cc(Cl)ccc34)cc2)CC1 [Example 1, N-[4-[[(1-Butyl-4-piperidinyl)amino]methyl]phenyl]-7-chloro-4-quinolinamine] | 8.4 µM | 13.1% | % Inhibition at 200 mg/kg p.o. [1, 4]: 7.1%
7 | Clc1ccc2c(Nc3ccc(CNC4CCN(Cc5ccccc5)CC4)cc3)ccnc2c1 [Example 10, 7-Chloro-N-[4-[[[1-(phenylmethyl)-4-piperidinyl]amino]methyl]phenyl]-4-quinolinamine] | 4 µM | 2.5% | 
8 | CCCCN1CCC(N(Cc2ccc(Nc3ccnc4cc(Cl)ccc34)cc2)C(C)=O)CC1 [Example 2, N-(1-Butyl-4-piperidinyl)-N-[[4-[(7-chloro-4-quinolinyl)amino]phenyl]methyl]acetamide] | 6 µM | 51.0% | % Inhibition at 200 mg/kg p.o. [1, 4]: 26.0%
9 | CCCCN1CCC(N(Cc2ccc(Nc3ccnc4cc(Cl)ccc34)cc2)C(=O)CCC)CC1.Cl [Example 8, N-(1-Butyl-4-piperidinyl)-N-[[4-[(7-chloro-4-quinolinyl)-amino]phenyl]methyl]butanamide, hydrochloride] | 1.2 µM | 80.0% | % Inhibition at 200 mg/kg p.o. [1, 4]: 58.0%
10 | CCCCCCCCCCCC(=O)N(Cc1ccc(Nc2ccnc3cc(Cl)ccc23)cc1)C1CCN(CCCCCC(=O)N(CC)CC)CC1.Cl [Example 16, 4-[[[4-[(7-Chloro-4-quinolinyl)amino]phenyl]methyl](1-oxododecyl)-amino]-N,N-diethyl-1-piperidinehexanamide, hydrochloride] | 3.8 µM | 30% | 
11 | CCCCN1CCC(N(Cc2ccc(Nc3ccnc4cc(Cl)ccc34)cc2)C(=O)C(F)(F)F)CC1.Cl [Example 7, N-(1-butyl-4-piperidinyl)-N-[[4-[(7-chloro-4-quinolinyl)amino]-phenyl]methyl]-2,2,2-trifluoroacetamide, hydrochloride] | 2.4 µM | 44.0% | 
12 | CCCCN1CCC(N(Cc2ccc(Nc3ccnc4cc(Cl)ccc34)cc2)C(=O)CCc2ccccc2)CC1.Cl [Example 5, N-(1-Butyl-4-piperidinyl)-N-[[4-[(7-chloro-4-quinolinyl)amino]phenyl]methyl]benzenepropanamide, hydrochloride] | 1.6 µM | 85.0% | % Inhibition at 200 mg/kg p.o. [1, 4]: 27.0%
13 | CN1CC[C@]23c4c5ccc(O)c4O[C@H]2[C@@H](O)C=C[C@H]3[C@H]1C5 [Morphine, reference compound] |  |  | ED50 ([1]; Mus musculus, po): 4.5 mg/kg
14 | CC(=O)Nc1ccc(O)cc1 [Acetaminophen, reference compound] |  |  | % inhibition of writhing ([1]; at 300 mg/kg p.o. (reference compound acetaminophen)): 20%
15 | CCCC(=O)N(Cc1ccc(Nc2ccnc3cc(Cl)ccc23)cc1)C1CCN(Cc2ccc(C(=O)N(CC)CC)cc2)CC1 [Example 12, 4-[[4-[[[4-[(7-Chloro-4-quinolinyl)amino]phenyl]methyl]-(1-oxobutyl)amino]-1-piperidinyl]methyl]-N,N-diethylbenzamide, hydrochloride, 0.76 hydrate] | 2.7 µM | 5% | 
16 | CCCCN1CCC(N(Cc2ccc(Nc3ccnc4cc(Cl)ccc34)cc2)C(=O)C(F)(F)C(F)(F)C(F)(F)F)CC1.Cl [Example 6, N-(1-Butyl-4-piperidinyl)-N-[[4-[(7-chloro-4-quinolinyl)amino]phenyl]-methyl]-2,2,3,3,4,4,4-heptafluorobutanamide, hydrochloride] |  |  | IC50 (BK2 receptor): 4.3 µM; % Inhibition at 30 mg/kg i.p. ([1]; mouse, in vivo): 68.0%
17 | CCN(CC)C(=O)CCCCCN1CCC(NCc2ccc(Nc3ccnc4cc(Cl)ccc34)cc2)CC1 [Example 13, 4-[[[4-[(7-Chloro-4-quinolinyl)amino]phenyl]methyl]amino]-N,N-diethyl-1-piperidinehexanamide, tris(trifluoroacetate), 0.42 hydrate] | 3.9 µM | 43% | 
18 | CCCCN1CCC(N(Cc2ccc(Nc3ccnc4cc(Cl)ccc34)cc2)C(=O)c2ccccc2)CC1 [Example 4, N-(1-Butyl-4-piperidinyl)-N-[[4-[7-chloro-4-quinolinyl)amino]phenyl]methyl]benzamide, hydrochloride] | 2 µM | 40.0% | 
19 | CC(C)Cc1ccc(C(C)C(=O)O)cc1 (centres unmarked) [Ibuprofen, reference compound] |  |  | % inhibition of writhing ([1]; at 200 mg/kg p.o. (reference compound ibuprofen)): 43%
20 | CC(C(=O)O)c1cccc(C(=O)c2ccccc2)c1 (centres unmarked) [Ketoprofen, reference compound] |  |  | % inhibition of writhing ([1]; mouse, in vivo, po, 100 mg/kg): 52%
21 | Des Arg^9 --BK: BK1 Agonist (RPPGFSPF; Bradykinin; UniProt P01042 381-388, looked up, fragment) [reference compound] |  |  | Activity (reference compounds, 3H-BK binding) (BK2 receptor; [5]): No Activity
22 | CCCCN1CCC(N(Cc2ccc(Nc3ccnc4ccccc34)cc2)C(C)=O)CC1 [Example 3, N-(1-Butyl-4-piperidinyl)-N-[[4-(4-quinolinylamino)phenyl]methyl]acetamide] | 10.8 µM |  | 
